Columns and labels:
[1] = test system: HepG2 cells; assay: LDL internalization by HepG2 cells, without or with P2Y13 receptor silencing; type: cell-based, human; settings: HepG2, 75 μg/ml 125I-LDL, 100 nM, both without or with P2Y13 receptors silencing
Protocol: Experiment was performed as in FIG. 2C except that HepG2 cells were incubated for 10 minutes at 37° C. with 75 μg/ml ^125I-LDL (n>6).
(§1) Internalization assays were performed as described in Guendouzi et al., (Biochemistry, 1998, 37: 14974-80) on HepG2 cells, obtained from the American Type Culture Collection ([…]). Cells were incubated for 10 minutes at 37° C. with 75 μg/ml of either ^125I-TG-HDL2, ^125I-HDL3 or ^125I-LDL. After washing and dissociation at 4° C. in phosphate buffered saline (PBS), cell radioactivity was determined using a Wallac 1261 multigamma apparatus.
The silencing of the different P2Y receptors were carried-out using the siRNA technique. The siRNA sequenced targeting human P2Y13 receptor (Gene Bank GB/EMBL/DDBJ accession number AF295368) was from position 406 or 359 relative to the start codon. The siRNA duplex (21-nt-RNAs) in deprotected and desalted form, the siRNA targeting human P2Y1 receptor (a mix of 4 siRNAs, M-005689), and the non-specific control siRNA (D-001206-01) were purchased from Dharmacon Inc. Subconfluent HepG2 cells were transiently transfected with siRNAs (final concentration, 100 nM) using Oligofectamine™ according to the manufacturer's protocole (Invitrogen). Cells were usually assayed 48 hours after transfection. […]
Results are expressed as a percentage of internalization with respect to the control value (set at 0). […]

[2] = molecular target: T1, human P2Y13 receptor (Homo sapiens, UniProt Q9BPV8); assay: forskolin-induced cAMP formation in hP2Y13-CHO-K1 cells; type: cell-based; settings: forskolin 3 μM; for maximal inhibition (decrease) of forskolin-induced cAMP accumulation / IC50: hP2Y13-CHO-K1 cells, 12 min; for IC50: read-out: IC50 for inhibition of forskolin-induced cAMP accumulation
T1 construct: expressed in transfected cells
T1 sequence (Q9BPV8 22-354 limits assumed): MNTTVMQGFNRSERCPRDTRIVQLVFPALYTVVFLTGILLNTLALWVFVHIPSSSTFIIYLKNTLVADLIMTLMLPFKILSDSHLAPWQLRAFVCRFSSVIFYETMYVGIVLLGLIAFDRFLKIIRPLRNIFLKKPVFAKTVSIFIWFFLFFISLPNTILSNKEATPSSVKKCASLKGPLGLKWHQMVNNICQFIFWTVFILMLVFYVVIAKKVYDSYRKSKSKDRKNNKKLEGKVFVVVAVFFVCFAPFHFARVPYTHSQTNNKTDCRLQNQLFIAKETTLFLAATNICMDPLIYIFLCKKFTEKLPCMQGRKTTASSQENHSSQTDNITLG
Protocol: The cells were incubated with various concentrations of these agents for 12 min as described in “Materials and Methods”. Data are expressed in % on the value with forskolin alone and presented as mean ±S.D. of triplicates in one representative experiment out of 4.
AR-C69931MX and ADP (at increasing concentrations) were added simultaneously with forskolin to hP2Y13-CHO-K1 cells for a 12 min incubation period. Data are expressed in % of the value with forskolin alone and presented as mean ±S.D. of triplicates in one representative experiment out of 2. (▴): ADP without AR-C69931MW; (●): ADP+AR-C69931MX (100 nM).
The cyclic AMP assays was performed on CHO-K1 cell lines expressing recombinant P2Y receptors as follows.
The CHO-K1 cell line stably expressing the human P2Y13 receptor has been previously described (Communi et al., J Biol Chem, 2001, 276: 41479-85). The plasmid of human P2Y12 receptor (hP2Y12-pEFIN5) was obtained from Euroscreen (Gosselies, Belgium) and was stably transfected into CHO-K1 cells by using the FuGENETM6 transfection reagent (Roche Applied Science, Mannheim, Germany). Transfected cells were selected using G418 (400 μg/ml). The hP2Y13-CHO-K1 and HP2Y12-CHO-K1 cells were grown in Ham'S F12 cell culture medium (Invitrogen-France) supplemented with fetal bovine serum (10%, v/v), penicillin (100 units/ml), streptomycin (100 μg/ml) and G418 (400 μg/ml).
The stably transfected CHO-K1 cells (200,000 cells/dish) were seeded on 35-mm diameter cell culture dishes in complete medium one day before the experiment. Cells were incubated for 2 hours in Krebs-Ringer-Hepes (KRH) buffer (124 mM NaCl, 5 mM KCl, 1.25 mM MgSO4, 1.45 mM CaCl2, 1.25 mM KH2PO4, 25 mM HEPES, pH 7.4, and 8 mM D-glucose) containing 25 μM Rolipram. Nucleotides were then added in presence of 3 μM forskolin, usually for a 12 min incubation (37° C.). The reactions were stopped by aspiration of the incubation medium and addition of 1 ml of 0.1 M HCl. The lysates were then vacuum dried and re-suspended in an appropriate volume of water. Cyclic AMP was quantified by 125l radioimmunoassay, as described in Communi et al., J Biol Chem, 2001, 276: 41479-85.

[3] = molecular target: T2, human P2Y13 receptor (Homo sapiens, UniProt Q9BPV8); assay: TG-HDL2 internalization by HepG2 cells after P2Y13 receptor silencing by siRNA; type: cell-based; settings: HepG2, P2Y13 siRNA 100 nM, 48 h; apoA-I 10 μg/ml, ADP 100 nM, AR-C69931MX 100 nM
T2 construct: host or cells: HepG2
T2 sequence (Q9BPV8 1-354): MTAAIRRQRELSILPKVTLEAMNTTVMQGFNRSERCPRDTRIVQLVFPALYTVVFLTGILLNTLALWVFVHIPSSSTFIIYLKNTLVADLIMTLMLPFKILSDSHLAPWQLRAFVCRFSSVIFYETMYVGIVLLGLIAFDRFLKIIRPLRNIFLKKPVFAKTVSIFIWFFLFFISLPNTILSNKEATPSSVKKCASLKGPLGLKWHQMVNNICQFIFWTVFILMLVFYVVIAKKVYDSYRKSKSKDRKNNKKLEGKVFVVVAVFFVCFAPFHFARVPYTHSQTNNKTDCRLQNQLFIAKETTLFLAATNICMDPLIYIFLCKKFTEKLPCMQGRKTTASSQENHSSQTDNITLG
Protocol: Experiment was performed as in FIG. 2A with non-specific control siRNA (a, b, c) or with siRNA directed to human P2Y13 receptor (d, e, f, g) (n>7); (*) p<0.05 (unpaired t-test).
as §1
The silencing of the different P2Y receptors were carried-out using the siRNA technique. The siRNA sequenced targeting human P2Y13 receptor (Gene Bank GB/EMBL/DDBJ accession number AF295368) was from position 406 or 359 relative to the start codon. The siRNA duplex (21-nt-RNAs) in deprotected and desalted form, the siRNA targeting human P2Y1 receptor (a mix of 4 siRNAs, M-005689), and the non-specific control siRNA (D-001206-01) were purchased from Dharmacon Inc. Subconfluent HepG2 cells were transiently transfected with siRNAs (final concentration, 100 nM) using Oligofectamine™ according to the manufacturer's protocole (Invitrogen). Cells were usually assayed 48 hours after transfection. Specific silencing effect was confirmed by at least three independent experiments.
Results are expressed as a percentage of internalization with respect to the control value (set at 0). Control corresponded to a basal value of internalization, amounting to 400 ng, 300 ng, 200 ng of TG-HDL2, HDL3 and LDL per mg of cells protein respectively for 10 minutes. Data as a mean ±SEM of at least 7, 5, 6 independent experiments, for TG-HDL2, HDL3 and LDL respectively.

behaviour at P2Y13 receptor (modulation of ADP effect on cAMP) ([2]; AR-C69931MX 100 nM with increasing ADP) | Structure (SMILES) | stimulation of internalization of 125I-labelled LDL [1] | maximal inhibition (decrease) of forskolin-induced cAMP accumulation [2] [%] | IC50 [2] [pM] | effect of P2Y13 receptor silencing on TG-HDL2 endocytosis after stimulation [3]
– | Nc1ncnc2c1ncn2[C@@H]1O[C@H](COP(=O)(O)OP(=O)(O)O)[C@@H](O)[C@H]1O [ADP, adenosine diphosphate, reference compound] | lack of stimulation | 70 | 600 ± 200 | dramatic inhibition
partial agonist | CSCCNc1nc(SCCC(F)(F)F)nc2c1ncn2[C@@H]1O[C@H](COP(=O)(O)OP(=O)(O)C(Cl)(Cl)P(=O)(O)O)[C@@H](O)[C@H]1O [AR-C69931MX, N-[2-(methylthio)ethyl]-2-[(3,3,3-trifluoropropyl)thio]-5′-adenylic acid, monoanhydride with dichloromethylenebisphosphonic acid] | lack of stimulation | 25 | 500 ± 100 | dramatic inhibition
